Measured values reported in patent US4560549A, “Method of relieving pain and inflammatory conditions employing substituted salicylamides” (Lever Brothers Company, priority 1983, dated 1985).

Legend:
[1] = tested on: inflammation of mice ears caused by calcium ionophore (A-23187); test: Anti-inflammatory activity on inflammation of mice ears caused by calcium ionophore A-23187 (Examples 4-7); type: in vivo, male outbred hairless mice; conditions: for Reduction in Edema (%) / Reduction in Erythema (%): Table I, 1.5 micromole topically to ear 30 min after 4.0 nmole A-23187, assessed at 4 hrs; for anti-inflammatory activity (in words): at the concentration used (1.5 micromole), data of Table 1; for reduction of inflammation (in words): topical, 30 minutes after application of ionophore A-23187
From the text: In a group of 5 male outbred hairless mice, inflammation is induced on their ears by the topical application thereto of 4.0 nmole in acetone solution (total volume 10 microliter) of the known divalent calcium ionophore (antibiotic A-23187), which is derived from streptomyces chartreusis and is a member of a known class of compounds having ionophoric activity. See, e.g. Pressman, B. C., "Biological Applications of Ionophores", Ann. Rev. Biochem., 45, 501, 1976. […] See Marks, F., Furstenberger, G., and Kownatzki, E., "Prostaglandin E-mediated Mitogenic Stimulation of Mouse Epidermis in vivo by divalent cation ionophore A-23187 and by tumor promoter 12-O-tetradecanoyl phorbol-13-acetate, Cancer Res., 41, 696, 1981.
In each animal only one ear is treated, the other untreated ear serving as a control.
In Examples 4, 5 and 6 the compounds AN-10, APCF3-8 and AMCF3-8, respectively, are topically applied to the treated ears of different groups of five male outbred hairless mice 30 minutes following the topical application thereto of the ionophore A-23187. Specifically, 1.5 micromole of the amido compound in acetone solution (total volume 10 microliters) is applied topically to treated male outbred hairless mice ears 30 min. after topical application thereto of a calcium ionophore (A-23187, 4.0 nmole total volume to 10 microliter) in acetone. As already noted, in each case, each animal serves as its own control in that only one ear is subjected to said test regime while the other ear is left untouched. Erythema and edema are assessed 4 hrs. after application of the ionophore. In Control Example 7, 3,4',5-tribromosalicylanilide (TBS) is applied in the same manner.

[2] = tested on: ears of hairless outbred mice inflamed with A-23187; test: Reduction in edema of A-23187 inflamed mouse ears by ear weight (Examples 8-14, Studies A and B); type: in vivo, young, male, adult hairless outbred mice (Skh:hr-1 strain); conditions: for Reduction in Edema (%): sacrificed at four hours; for anti-inflammatory activity (in words): under the test conditions, data of Table 2
From the text: (§1) Acute inflammation is induced by the application of 4 nano mole of the antibiotic A-23187 to the ears of young, male, adult hairless outbred mice (Skh:hr-1 strain). Thereafter, one of the compounds AN-10, AMCF3-8, ACBXE-9, acryloyl AN-10, S-4-F and SAN-6 is applied to the affected ears and the degree of reduction in edema (inflammation) noted.
The method used in the subject Examples differs from the method used in the preceding Examples (4 through 7) in two respects.
(§2) Secondly, in the expression of the data, the objective parameter of ear weights is used as the sole data source (for the reduction of edema) as erythematous responses are not recorded. Ear weights are determined by sacrificing the animals four hours after initial application of the antibiotic A-23187 or other control material by the use of CO2 gas. Thereafter, the ears are excised by cutting along the characteristic ridge readily discernible along the inner aspect of the ears. Wet and dry ear weights are used to determine the extent of the edema or inflammation present.
In Study A, 28 test animals are randomized into four treatment groups of seven each and subjected to the following ear treatment regimen:
Each animal is dosed with a treatment consisting of a 10 microliter quantity of the assigned test material solution (or pure acetone in the case of the animals of Group D) applied to the outer aspect of both ears, i.e., 10 microliter of test material per ear. The concentrations of the respective materials in acetone solution are such that a 10 microliter dose of a solution of the antibiotic A-23187 contains 4 nano mole of such antibiotic. The corresponding quantity in the case of the AN-10 in acetone solution is 1.5 micromole. The animals of Groups A and B are initially treated with the acetone solution of A-23187. In the case of the animals of Group B alone, 10 microliter of the acetone solution of AN-10 is applied to the affected ears 1/2 hour after the application of the above-mentioned quantity of a solution in acetone of the antibiotic A-23187. The animals of Group C receive a 10 microliter dose per ear of the AN-10 in acetone solution alone. The animals of Group D receive a dose of 10 microliter per ear of pure acetone. All the test subjects are sacrificed four hours after the application of A-23187 to the animals of Groups A and B or the other test materials in the case of the animals of Groups C and D. The results are summarized in Table 2 noted below.
(§3) A second group of studies (Study B) is conducted on two consecutive days with two sets of mice (totalling […]) received from the same shipment.
On Day 2, using the second set of 40 mice, sub-divided into 8 groups of 5 each, the six compounds in question are applied as acetone solutions in the manner described under Study A to mice ears inflamed with A-23187 again, as described in Study A above. As with the studies conducted on Day 1, the remaining two groups of 5 animals each serve as controls and their ears are dosed with A-23187 and acetone respectively.
(§4) The amount of each salicylamide compound applied is kept constant, for Days 1 and 2, at 1.5 micromole per 10 microliter of test solution. Sacrifice begins four hours after application A-23187, on both days, and the results are recorded. Table 2 summarizes the results of the regimen of testing involved with each one of the 30 animals in question on Day 2 with the remaining 10 animals serving as controls as already noted.

[3] = tested on: untreated ears of mice; test: Inflammatory potential of the compounds on untreated mouse ears (Study B, Day 1); type: in vivo, young, male, adult hairless outbred mice (Skh:hr-1 strain); conditions: 1.5 micromole per 10 microliter on untreated ears
From the text: as §1, §2, §3
The first batch of 40 animals is divided into […] of 5 each. […] The remaining two groups of 5 animals each serve as controls and their ears are dosed with A-23187 and acetone respectively.
as §4

[4] = tested on: mice backs (skin); conditions: topical application to mice backs; cited from earlier work
[5] = tested on: Osborne-Mendel white rats; conditions: single dose oral route, female Osborne-Mendel white rats; cited from earlier work
[6] = tested on: rats; conditions: comparable toxicity for aspirin; cited from earlier work
[7] = Study B, Day 2, 1.5 micromole per 10 microliter, A-23187 inflamed ears

O=C(Nc1ccc(Br)cc1)c1cc(Br)cc(Br)c1O [TBS, 3,4',5-tribromosalicylanilide, reference compound]
Reduction in Edema (%) [1]: 12%
Reduction in Erythema (%) [1]: 35%
anti-inflammatory activity (in words) [1]: essentially inactive

CCCCCCc1ccc(O)c(C(=O)Nc2ccc([N+](=O)[O-])cc2)c1 [SAN-6]
Reduction in Edema (%) [2, 7]: 59%
anti-inflammatory activity (in words) [2]: significant anti-inflammatory activity
noticeable inflammation caused by the compound alone [3]: none of the six compounds being tested cause any noticeable inflammation

CCCCCCCC(=O)c1ccc(O)c(C(=O)Nc2cccc(C(F)(F)F)c2)c1 [AMCF3-8]
more edema reduction activity of the meta isomer than the para isomer ([1]; AMCF3-8 versus APCF3-8): about 30%
more erythema reduction activity of the meta isomer than the para isomer ([1]; AMCF3-8 versus APCF3-8): about 20%
Reduction in Edema (%) [1]: 80%
Reduction in Erythema (%) [1]: 76%
anti-inflammatory activity (in words) [1]: effective anti-inflammatories
Reduction in Edema (%) [2, 7]: 81%
anti-inflammatory activity (in words) [2]: significant anti-inflammatory activity
noticeable inflammation caused by the compound alone [3]: none of the six compounds being tested cause any noticeable inflammation

CCCCc1ccc(O)c(C(=O)Nc2cccc(C(F)(F)F)c2)c1 [S-4-F]
Reduction in Edema (%) [2, 7]: 70%
anti-inflammatory activity (in words) [2]: significant anti-inflammatory activity
noticeable inflammation caused by the compound alone [3]: none of the six compounds being tested cause any noticeable inflammation

C[C@]12CCC(=O)C=C1CC[C@@H]1[C@@H]2[C@@H](O)C[C@@]2(C)[C@H]1CC[C@]2(O)C(=O)CO [hydrocortisone, reference compound]
reduction of inflammation (in words) [1]: reduction of inflammation

CCCCCCCC(=O)c1ccc(O)c(C(=O)Nc2ccc(C(F)(F)F)cc2)c1 [APCF3-8]
Reduction in Edema (%) [1]: 48%
Reduction in Erythema (%) [1]: 57%
anti-inflammatory activity (in words) [1]: effective anti-inflammatories

CNc1ccc2oc(C[C@H]3O[C@@]4(CC[C@H]3C)O[C@H]([C@H](C)C(=O)c3ccc[nH]3)[C@H](C)C[C@H]4C)nc2c1C(=O)O [A-23187, reference compound]
acute inflammation on treated mice ears (in words) ([1]; topical application of A-23187, time and dose dependent): Acute inflammation develops on treated mice ears within 4 hours
skin irritation (in words) [4]: potent ability to cause skin irritation with white blood cell infiltration, erythema (skin reddening), edema, epidermal hypertrophy and subsequent epidermal hyperplasia

CCCCCCCCCC(=O)c1ccc(O)c(C(=O)Nc2ccc([N+](=O)[O-])cc2)c1 [AN-10]
Reduction in Edema (%) [1]: 59%
Reduction in Erythema (%) [1]: 59%
anti-inflammatory activity (in words) [1]: effective anti-inflammatories
Reduction in Edema (%) ([2]; Study A, 1.5 micromole per ear 1/2 hour after 4 nano mole A-23187): 55%
Reduction in Edema (%) [2, 7]: 81%
anti-inflammatory activity (in words) [2]: significant anti-inflammatory activity
LD50 [5]: greater than 2000 mg./kg.
noticeable inflammation caused by the compound alone [3]: none of the six compounds being tested cause any noticeable inflammation

C=CC(=O)Oc1ccc(C(=O)CCCCCCCCC)cc1C(=O)Nc1ccc([N+](=O)[O-])cc1 [acryloyl AN-10]
Reduction in Edema (%) [2, 7]: 82%
anti-inflammatory activity (in words) [2]: significant anti-inflammatory activity
noticeable inflammation caused by the compound alone [3]: none of the six compounds being tested cause any noticeable inflammation

COc1ccc2c(c1)c(CC(=O)O)c(C)n2C(=O)c1ccc(Cl)cc1 [indomethacin, reference compound]
reduction of inflammation (in words) [1]: reduction of inflammation

CC(=O)Oc1ccccc1C(=O)O [aspirin, acetylsalicylic acid]
LD50 [6]: about 1.75 g/kg. body weight

CCCCCCCCC(=O)c1ccc(O)c(C(=O)Nc2cccc(C(=O)OCC)c2)c1 [ACBXE-9]
Reduction in Edema (%) [2, 7]: 76%
anti-inflammatory activity (in words) [2]: significant anti-inflammatory activity
noticeable inflammation caused by the compound alone [3]: none of the six compounds being tested cause any noticeable inflammation
